Measurements from US20070077202A1, “Histostain composition for endoscope” (PENTAX Corporation, priority 2005, published 2007).

Key:
large intestine tissue [1] = assay: relative fluorescence brightness estimated from spectral sensitivity of the confocal microscope; format: in vivo, mouse; conditions: same dye concentration
Procedure: That is, this function can be used for relative estimation of the fluorescence intensity of each of the samples having different brightness levels.
The fluorescence brightness of a sample with Sodium fluorescein relative to Monascus color (yellow), as calculated on the basis of such spectral sensitivity as to give the same degree of fluorescence brightness, was 0.74 times after 10 minutes or 0.84 times after 60 minutes.

large intestine tissue [2] = assay: staining test by perfusion through the heart of a mouse; format: in vivo; conditions: 1 mg/mL
Procedure: A staining test was carried out with Monascus color (yellow) (1 mg/mL, 2 mL) by perfusion thereof through the heart of a mouse. […] The permeability of stain by this perfusion staining method was higher than the method in which the excised tissue is stained (Example 2) or the method in which colors are injected through the anus (Example 7). […] That is, the well-stained sites were the same as in Examples 7 and 8.
Sodium fluorescein (1 mg/mL) was also examined in the same manner as in Example 9.

mouse large intestine [3] = assay: mouse large intestine staining with xanthomonasin A, excised after 1 minute and 10 minutes; format: in vivo; conditions: 1 mg/mL saline, 100 μL
Procedure: Mice (ddY, 9-week-old, male) were anesthetized, and 100 μL xanthomonasin A (centrifuged and dried sample, 1 mg/mL saline) was injected via an injection needle into the large intestine lumen for staining. The mouse large intestines were excised after 1 minute and 10 minutes respectively, and the samples were observed under a confocal microscope (TCS SP2).

mouse large intestine [4] = assay: mouse large intestine staining test with purified xanthomonasin A, confocal image; format: in vivo; conditions: 10 mg/mL saline, 100 μL, 5 minutes
Procedure: Using purified xanthomonasin A in Example 10, a mouse large intestine staining test was carried out. A mouse (ddY, 9-week-old, male) was anesthetized, and 100 μL xanthomonasin A (centrifuged and dried sample, 10 mg/mL saline) was injected via an injection needle into the large intestine lumen for staining. After 5 minutes, the mouse large intestine was excised and its confocal image was taken and observed under a confocal microscope (TCS SP2).

mouse large intestine [5] = assay: mouse large intestine staining test with xanthomonasin A, frozen section observation; format: in vivo; conditions: 10 mg/mL saline, 100 μL, 5 minutes; 6 μm frozen section
Procedure: Purified xanthomonasin A in Example 10 was used in a mouse large intestine staining test and for observing a frozen section. A mouse (ddY, 11-week-old, male) was anesthetized, and 100 μL xanthomonasin A (centrifuged and dried sample, 10 mg/mL saline) was injected via an injection needle into the large intestine lumen for staining. After 5 minutes, the mouse large intestine was excised, frozen and embedded in OCT compound, and the frozen section thus obtained was cut into thin slices each having a thickness of 6 μm. The thin slices were observed by hematoxylin-eosin staining and also observed for fluorescence by staining with xanthomonasin A.

Row | SMILES | fluorescence brightness relative to Monascus color (yellow) (large intestine tissue [1]; after 10 minutes) | fluorescence brightness relative to Monascus color (yellow) (large intestine tissue [1]; after 60 minutes) | staining of cell nuclei (large intestine tissue [2]) | staining of cells constituting the mucosa (large intestine tissue [2]) | staining of mucus components of goblet cells (large intestine tissue [2]) | stained sites, 1 minute versus 10 minutes (mouse large intestine [3]) | visibility (mouse large intestine [3]; stained for 10 minutes) | quality of sectional images (mouse large intestine [4]) | staining of epithelial cells (mouse large intestine [5]) | staining of muscular plate (mouse large intestine [5])
1 | O=C([O-])c1ccccc1-c1c2ccc(=O)cc-2oc2cc([O-])ccc12.[Na+].[Na+] [Sodium fluorescein] | 0.74 times | 0.84 times | could not be judged | many of the cells constituting the mucosal tissue were stained well | not stained | – | – | – | – | –
2 | C/C=C/[C@]1(O)Cc2c(oc(O)c2C=O)C2=C(C(=O)CCCCC)C(=O)O[C@@]21C [xanthomonasin A] | – | – | – | – | – | identical in respect of stained sites | could be further improved | very vivid sectional images were obtained | stained relatively excellently | excellently stained
